The text below walks through data of patent US20050256132A1, “Use of ER selective NF-kB inhibitors for the treatment of sepsis” (priority 2003, published 2005).

Data set [1] deals with ERβ. Briefly: Reporter activity in HAECT-1 cells expressing ERβ. In kind it is cell-based, human. The settings on record: FIG. 1C. As for the experimental part: (A) The effect of compound 67 on NF-κB mediated luciferase reporter activity in HAECT-1 cells expressing ERα. […] (C) The effect of compound 67 on the human IL-6 promoter luciferase reporter activity in HAECT-1 cells expressing either ERα (squares) or ERβ (diamonds). (D) The remaining lysate from (A) was used to determine CK activity.
HAECT-1 cells (Chadwick C C, et al., Proc Natl Acad Sciences, 2005, 102(7): 2543-2548) were cultured in EGM (GIBCO, Rockville, Md.) containing 10% FBS, 1% GlutaMAX and 0.1% Antimycotic-Antibiotic in Falcon T-175 culture flasks at 34° C. in 5% CO2 and infected for four hours with Ad5-wt-ER virus. After overnight recovery, the cells were infected for 2 hours with the Ad5-3x(NFκB).Luc or Ad5-IL6.Luc virus. Compound 67 and 2 ng/ml IL-1 were added to the cells for 15-20 h and the cell lysate was assayed for luciferase activity and evaluated for CK expression (Stanbio Laboratories, Texas). The values are reported as mean±SEM with n=4 from at least 3 independent experiments.

Data set [2] relates to Listeria monocytogenes. Put plainly: Murine Listeria model, cytokine response analysis. Type of data set: in vivo, BALB/c mice. The following applies: 10^5 cells/animal iv, 24 hours after challenge, vs control. As for the experimental part: Corn oil and Tween-stabilized vehicle was used as the control. All other reagents used in the experiments were purchased commercially from Sigma (St. Louis, Mo.) except for the cytokine assays which were purchased from Biosource (Camarillo, Calif.). The cytokines were measured by enzyme-linked immunoassay according to the manufacturer's instructions. The limits of detection of each assay are as follows: tumor necrosis factor α—3 pg/ml, interleukin-6—3 pg/ml, interferon gamma—1 pg/ml, monocyte chemo attractant protein—9 pg/ml. Endotoxin values were measured using a quantitative turbidometric assay (LAL5000) (Associates of Cape Cod, Woods Hole, Mass.).
The listeria model of systemic infection in mice was performed as previously described (Opal S. M., et al., Shock 15(4):285-290, 2001). Compound 67 was administered orally via an orogastric tube to BALB/c mice in an increasing dose schedule of from 1.5 mg/kg to 50 mg/kg. The BALB/c mice were purchased from Charles River Laboratories (Wilmington, Mass.). […]
For the cytokine response analysis, a standard dose of 10^5 cells/animal was administered intravenously, and cytokine measures were performed 24 hours after the intravenous challenge. […] The LD50 was calculated by the method of Reed and Meuch (Opal S. M., et al., J Infect Dis 187:70-76, 2003.).

The nature of data set [3]: Cecal ligation and puncture model in mice. In kind it is in vivo, BALBc mice. As for the experimental part: The cecal ligation puncture (“CLP”) procedure was derived from a modification of standard methods previously described (Opal S M, et al., Shock 15(4):285-290, 2001). Female, non-pregnant, specific pathogen-free, Albino BALBc mice (20-25 gm) were used in the experiment. […] Animals were allowed to eat and drink sterile water on an ad libitum basis until 12 h before surgery when food was withheld until after the surgical procedure.
Anesthetized animals (methoxyflurane, Mallinckodt Veterninary Inc., Mundeline, Ill.) had the abdominal skin shaved and a midline, abdominal incision was made. The cecum was exteriorized and distended using intraluminal contents from the colon. The cecum was then ligated below the ileocecal valve and punctured twice using a 23-gauge sterile needle. The cecum was returned to the peritoneal cavity and the transversalis fascia was closed along with the skin incision. The skin incision was covered with topical bacitracin ointment. The animals were given a single […] dose of trovafloxacin (20 mg/kg IM) immediately post-operatively and a 1-mL subcutaneous dose of PBS was given as fluid resuscitation. […] All animals underwent necropsy examination for histological evidence of organ injury, pathology scoring of intestinal mucosa, and quantitative bacteriology.
Differences in survival time between groups were analyzed by Kaplan-Meier survival plots and log-rank testing. Other parameters were measured using a Mann-Whitney U-Test for 2 groups or the Kruskal-Wallis one way analysis of variance for 3 or more groups. A p value of <0.05 was considered significant. All data is presented as mean and standard deviation.

Entries after “also recorded” stand apart in the source; their conditions may differ.

For `COc1ccccc1[C@H](c1cccc2ccccc12)[C@@](C)(C#N)C(=O)N1CCC(c2cccc(C(F)(F)F)c2)CC1` [Example 67, (S,S)-3-(2-methoxyphenyl)-2-methyl-3-(1-naphthyl)-2-({4-[3-(trifluoromethyl)phenyl]piperidin-1-yl}carbonyl)propanenitrile], the “inhibition of NF-κB transcriptional activity in the presence of ERβ” value in data set [1] is listed as “little inhibition”. Moreover, the “cytokine levels (TNF, IL-6, MCP-1, interferon gamma) in bacteremic animals” value in data set [2] was “unchanged”. Also, the “survival vs vehicle control (Kaplan-Meier)” value in data set [3] (50 mg/kg at 0, 24 and 48 hours after CLP, 7 days, FIG. 5) is given as “significant survival advantage; also recorded: significantly greater than control”. Further, the “histopathologic scores of small bowel intestinal mucosa” value in data set [3] (50 mg/kg, p<0.05 vs vehicle control) is given as “significant preservation of mucosal integrity”. Besides, the “systemic cytokine release and endotoxin levels” value in data set [3] (50 mg/kg, vs vehicle control, p=ns) is recorded as “did not differ”.
